Assay results published in article PMC6934184, “Selective DNA-PKcs inhibition extends the therapeutic index of localized radiotherapy and chemotherapy” (The Journal of Clinical Investigation, 2019).

Target: T1, PTK6 (Brk) (Homo sapiens, UniProt Q13882)
T1 construct: purchased Thermo Fisher Scientific (Life Technologies) SelectScreen
Assay: SelectScreen Z'LYTE
Format: biochemical
Procedure, shortened: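 SelectScreen broad panel; activity (Z'LYTE, Adapta) plus binding formats. ATP: Km app for CSF1R Z'LYTE; 10 for CAMK1 Adapta. Readout = % per kinase.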

T1 sequence (Q13882 whole entry): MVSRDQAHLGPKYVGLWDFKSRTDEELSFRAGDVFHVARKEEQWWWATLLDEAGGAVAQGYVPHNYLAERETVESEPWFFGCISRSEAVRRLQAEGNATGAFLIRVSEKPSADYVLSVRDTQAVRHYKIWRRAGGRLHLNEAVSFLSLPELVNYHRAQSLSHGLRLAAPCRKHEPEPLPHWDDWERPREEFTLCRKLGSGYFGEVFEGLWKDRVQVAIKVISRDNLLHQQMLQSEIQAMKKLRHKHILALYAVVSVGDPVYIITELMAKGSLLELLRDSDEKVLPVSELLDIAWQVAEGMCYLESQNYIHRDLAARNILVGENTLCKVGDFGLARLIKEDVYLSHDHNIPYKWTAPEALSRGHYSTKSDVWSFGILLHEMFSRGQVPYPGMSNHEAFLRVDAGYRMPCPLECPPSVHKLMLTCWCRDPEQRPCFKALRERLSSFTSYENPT

## CN(C(=O)CN1CCOCC1)c1ccc2sc3c(-c4cccc5c(=O)cc(N6CC7CCC(C6)O7)oc45)cccc3c2c1 [NU5455]
  inhibition at 1 µM: 0.7%
